# Patent US11780834B2, “Solid forms of 3-((1R,3R)-1-(2,6-difluoro-4-((1-(3-fluoropropyl)azetidin-3-yl)amino)phenyl)-3-methyl-1,3,4,9-tetrahydro-2H-pyrido[3,4-b]indol-2-yl)-2,2-difluoropropan-1-ol and processes for preparing fused tricyclic compounds comprising a substituted phenyl or pyridinyl moiety, including methods …” (Hoffmann-La Roche Inc., priority 2018, dated 2023)
# Legend:
# [1] = Water sorption analysis / DVS (hygroscopicity); assay type: physicochemical; conditions: for Hygroscopicity (in words): water sorption / DVS at 25° C.
# Description: Water sorption analysis. About 5-6 mg of powder sample was placed in the sample pan of an automated water sorption analyzer (Q5000SA, TA instruments, New Castle, DE) at 25° C. and a nitrogen flow rate of 200 mL/min. […] This was followed by a progressive decrease in RH in decrements of 10% back to 0% RH, using the same protocol.
# [2] = Equilibrium solubility (24 hrs) of Form B and Form D in aw 0.2/0.4 EtOH:H2O systems; assay type: physicochemical; conditions: RT, concentration of freebase in filtrate; for solubility at 24 hrs: organic solvent or mixture, thermodynamic from solid
# Description: Solubility Measurement of Form B and D. To further confirm the thermodynamic stability relationship between Form B and Form D under aw of 0.2 and 0.4 conditions at RT, equilibrium solubility under the conditions set forth in Table 35 was collected.
# Solids of anhydrous Form B and hydrous Form D were suspended in 0.5 mL of target solvent system (aw=0.2/0.4), respectively, and magnetically stirred for 24 hrs (750 rpm). The suspension was filtered and the concentration of freebase in the filtrate was tested.
# [3] = Compression analysis of Compound B Form B compacts; assay type: physicochemical; conditions: 250 mg compacts of neat compound
# [4] = Solubility at 37° C. (summary of solid forms); assay type: physicochemical; conditions: medium not stated
# [5] = Hydrate-anhydrate stability, slurry competition under various water activity at RT; assay type: physicochemical
# Description: Critical Water Activity Determination between Form B and D. To determine critical water activity between anhydrous Form B and hydrous Form D, slurry competition was performed in various water activity conditions at RT as listed in Table 34. A mixture of Form B and D with equal mass ratio was suspended in saturated EtOH-water (with various aw) solutions of Form B and then magnetically stirred at RT. After slurry for about 7˜36 days, remaining solids were isolated for XRPD characterization.
# [6] = Stress stability of solid forms at elevated temperature and humidity (XRPD, impurities); assay type: physicochemical
# Description: Preliminary stress stability analysis of Compound B Form B. The XRPD patterns of Compound A salts (fumarate and tartrate) exposed to 40° C./75% RH for one month under open conditions.
# XRPD of one-month stability sample.
# [7] = Equilibrium solubility (17 hrs) of Form B and Form F in EtOH; assay type: physicochemical; conditions: concentration of freebase in filtrate
# Source text: Phase transformation. Crystallization of Compound B from solvents such as ethyl acetate, ethanol, acetone or and aqueous mixture of these may result in the formation of one more of the following forms: anhydrous Form B, anhydrous Form F, monohydrate Form D, and acetone solvate Form A. The XRPD patterns of these four solid forms are shown in FIG. 21. It was therefore important to know the physical stability of these forms to determine the complete phase transformation landscape and control crystallization to obtain the desired Form B. Owing to the close proximity of melting points of Forms F and B (160-164° C. onset for Form F vs 166-175° C. for Form B), form conversion was slow in competitive slurry bridging experiments at RT and a mixture of both forms was obtained.
# Equilibrium Solubility Measurement of Anhydrous Form B and F. To further determine the thermodynamic stability between Form B and F, equilibrium solubility measurement experiments were conducted in EtOH at 25° C., 35° C. and 50° C., respectively. Detailed procedures are summarized as follows: solids of Form B and F were suspended in 0.4 mL of EtOH at targeted temperatures and magnetically stirred for 17 hrs (750 rpm). After centrifugation, the concentration and HPLC purity of freebase in the filtrate was tested. The crystal form of remaining solids was checked by XRPD.
# [8] = Approximate solubility of freebase Compound A in 16 solvents at RT; assay type: physicochemical
# Description: Polymorph Screening. The solubility of freebase Compound A was estimated in 16 solvents at RT. (Table 8). Polymorph screening experiments were performed using different solution crystallization or solid phase transition methods.
# [9] = system: xenograft models of ER-positive breast cancer; conditions: dosed according to a clinically relevant dosing scheme
smiles,measurement,setting,value
C[C@@H]1Cc2c([nH]c3ccccc23)[C@@H](c2c(F)cc(NC3CN(CCCF)C3)cc2F)N1CC(F)(F)CO [Compound B Form D],"Water uptake (DVS, desorption)","[1]; 20% RH, 25° C.",2.25%
same,"Water uptake (DVS, desorption)","[1]; 80% RH, 25° C.",2.72%
same,Solubility (equilibrium),"[2]; aw 0.2, EtOH:H2O (97:3, v/v)",21.7 mg/mL
same,Solubility (equilibrium),"[2]; aw 0.4, EtOH:H2O (92.7:7.3, v/v)",18.6 mg/mL
C[C@@H]1Cc2c([nH]c3ccccc23)[C@@H](c2c(F)cc(NC3CN(CCCF)C3)cc2F)N1CC(F)(F)CO [Compound B Form B],"Solid form upon compression (SSNMR, XRPD)",[3],remains unchanged
same,Solubility at 37° C.,[4],about 5.9 mg/mL
same,Hygroscopicity (in words),[1],slightly hygroscopic
same,Water activity (aw) at which the form remained stable against hydrate Form D,[5],< 0.2
same,Water activity (aw) up to which the form was kinetically stable,[5]; slurry bridging experiments up to 36 days,≤ 0.4
same,Solid form (XRPD) after accelerated stability,"[6]; 30° C./65% RH and 40° C./75% RH, up to 6 months, open",remains unchanged
same,Solid form (XRPD) after stress stability,"[6]; 40° C./75% RH, one month, open",remains unchanged
same,solubility at 24 hrs,"[2]; EtOH:H2O (92.7:7.3, v/v), aw 0.4, 25 °C, aw 0.4, EtOH:H2O (92.7:7.3, v/v)",27.5 mg/mL
same,solubility at 24 hrs,"[2]; EtOH:H2O (97:3, v/v), aw 0.2, 25 °C, aw 0.2, EtOH:H2O (97:3, v/v)",24.4 mg/mL
same,solubility at 17 hrs,"[7]; 35 °C, organic solvent or mixture, thermodynamic from solid",0.3 mg/mL
same,solubility at 17 hrs,"[7]; 50 °C, organic solvent or mixture, thermodynamic from solid",0.49 mg/mL
same,solubility at 17 h,"[7]; ethanol, 25 °C, organic solvent or mixture, thermodynamic from solid",0.23 mg/mL
C[C@@H]1Cc2c([nH]c3ccccc23)[C@@H](c2c(F)cc(NC3CN(CCCF)C3)cc2F)N1CC(F)(F)CO [Compound C Form 1],Hygroscopicity at 95% RH,[1]; 95% RH,< 1.5%
"C[C@@H]1Cc2c([nH]c3ccccc23)[C@@H](c2c(F)cc(NC3CN(CCCF)C3)cc2F)N1CC(F)(F)CO [Compound A, 3-((1R,3R)-1-(2,6-difluoro-4-((1-(3-fluoropropyl)azetidin-3-yl)amino)phenyl)-3-methyl-1,3,4,9-tetrahydro-2H-pyrido[3,4-b]indol-2-yl)-2,2-difluoropropan-1-ol]",solubility,[4],~6.6 mg/mL
same,solubility,"[8]; ethanol, organic solvent or mixture, EtOH",> 60 mg/mL
same,solubility,"[8]; organic solvent or mixture, 1,4-Dioxane",> 60 mg/mL
same,solubility,"[8]; organic solvent or mixture, 2-propanol",> 60 mg/mL
same,solubility,"[8]; organic solvent or mixture, ACN",> 60 mg/mL
same,solubility,"[8]; organic solvent or mixture, Acetone",> 60 mg/mL
same,solubility,"[8]; organic solvent or mixture, CPME",> 44 mg/mL
same,solubility,"[8]; organic solvent or mixture, Cyclohexanes",< 1.9 mg/mL
same,solubility,"[8]; organic solvent or mixture, EtOAc",> 60 mg/mL
same,solubility,"[8]; organic solvent or mixture, IPAc",> 60 mg/mL
same,solubility,"[8]; organic solvent or mixture, Iso-butanol",> 40 mg/mL
same,solubility,"[8]; organic solvent or mixture, MIBK",> 60 mg/mL
same,solubility,"[8]; organic solvent or mixture, MTBE",> 60 mg/mL
same,solubility,"[8]; organic solvent or mixture, MeTHF",> 60 mg/mL
same,solubility,"[8]; organic solvent or mixture, Toluene",> 60 mg/mL
same,solubility,"[8]; organic solvent or mixture, n-Heptane",< 2.1 mg/mL
same,solubility,"[8]; water, H2O",< 1.9 mg/mL
C[C@@H]1Cc2c([nH]c3ccccc23)[C@@H](c2c(F)cc(NC3CN(CCCF)C3)cc2F)N1CC(F)(F)CO [Compound B Form F],Water uptake (DVS),"[1]; up to 80% RH, 25° C.",~1.9%
same,Hygroscopicity (in words),[1],slightly hygroscopic
same,Solubility (equilibrium),[7]; 25° C.,0.26 mg/mL
same,Solubility (equilibrium),[7]; 35° C.,0.36 mg/mL
same,Solubility (equilibrium),[7]; 50° C.,0.82 mg/mL
C[C@@H]1Cc2c([nH]c3ccccc23)[C@@H](c2c(F)cc(NC3CN(CCCF)C3)cc2F)N1CC(F)(F)CO [Compound C],Impurities after stress stability,"[6]; 40° C./75% RH, one month",0.18%
same,Solid form (XRPD) after stress stability,"[6]; 40° C./75% RH, one month, open",did not change
"C[C@]12CC[C@@H]3c4ccc(O)cc4C[C@@H](CCCCCCCCC[S+]([O-])CCCC(F)(F)C(F)(F)F)[C@H]3[C@@H]1CC[C@@H]2O (stereo partly drawn) [Fulvestrant, reference compound]",Efficacy relative to Compound B,[9],less efficacious than Compound B
